Measured values from PMC8881610 (Nature Communications, 2022).

Columns and labels:
[1] = molecular target: T1, GIPR (Homo sapiens, UniProt P48546, W90A); assay: cAMP accumulation assay (LANCE Ultra cAMP kit), GIPR WT, mutant or modified constructs; assay type: cell-based; design: acylated tirzepatide to the full-length or modified; Flag; expressed in transfected cells; host or cells: HEK293T; conditions: HEK-293T, GIPR W90A; HEK293T
T1 sequence (P48546 22-466 W90A): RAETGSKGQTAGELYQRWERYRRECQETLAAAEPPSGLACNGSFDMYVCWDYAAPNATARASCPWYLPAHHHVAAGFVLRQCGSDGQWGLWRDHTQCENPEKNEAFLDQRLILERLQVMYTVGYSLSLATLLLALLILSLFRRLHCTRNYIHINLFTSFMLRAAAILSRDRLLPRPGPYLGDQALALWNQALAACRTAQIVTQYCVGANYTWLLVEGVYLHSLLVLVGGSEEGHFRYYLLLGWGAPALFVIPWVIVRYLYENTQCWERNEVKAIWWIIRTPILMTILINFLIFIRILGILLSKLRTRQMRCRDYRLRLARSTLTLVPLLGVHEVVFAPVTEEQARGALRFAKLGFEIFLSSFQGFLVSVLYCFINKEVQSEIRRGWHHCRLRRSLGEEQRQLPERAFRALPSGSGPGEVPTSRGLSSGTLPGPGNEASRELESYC
Outline: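 HEK293T cells transiently transfected with human GIPR WT or mutant constructs (pcDNA3.1), used after 24 h. The cells were stimulated with peptide agonists for 40 min at RT in HBSS with 5 mM HEPES, 0.1% BSA or casein, and 0.5 mM IBMX. cAMP was read by LANCE Ultra TR-FRET (Eu-cAMP tracer/ULight anti-cAMP, 1 h RT, 620/650 nm).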

[2] = molecular target: GLP-1R (Homo sapiens, UniProt P43220, R134A); assay: Whole-cell binding assay, competition with 125I-GLP-1(7-36)NH2; design: Flag; expressed in transfected cells; conditions: GLP-1R R134A, CHO-K1
Sequence of GLP-1R (Homo sapiens, UniProt P43220, R134A) (P43220 24-463 R134A): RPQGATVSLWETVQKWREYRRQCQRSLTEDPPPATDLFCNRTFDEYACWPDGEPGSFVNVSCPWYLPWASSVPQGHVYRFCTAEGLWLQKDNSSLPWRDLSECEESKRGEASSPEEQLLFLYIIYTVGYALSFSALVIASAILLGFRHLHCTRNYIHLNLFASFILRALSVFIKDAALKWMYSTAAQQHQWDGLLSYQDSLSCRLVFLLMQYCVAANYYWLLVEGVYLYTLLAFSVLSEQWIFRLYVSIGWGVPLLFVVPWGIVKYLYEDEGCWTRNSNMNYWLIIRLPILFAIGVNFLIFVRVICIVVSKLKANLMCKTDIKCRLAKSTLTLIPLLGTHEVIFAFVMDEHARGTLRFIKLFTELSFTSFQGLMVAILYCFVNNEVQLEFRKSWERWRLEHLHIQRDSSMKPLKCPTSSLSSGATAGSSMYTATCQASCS
Procedure: (§1) Human embryonic kidney 293 cells containing SV40 large T-antigen (HEK293T) were cultured in DMEM (Gibco) supplemented with 10% (v/v) fetal bovine serum (FBS, Gibco), 1 mM sodium pyruvate (Gibco) and 100 units/mL penicillin and 100 μg/mL streptomycin at 37 °C in 5% CO2. Chinese hamster ovary (CHO-K1) cells were cultured in F-12 (Gibco) containing 10% FBS, 100 units/mL penicillin and 100 μg/mL streptomycin at 37 °C in 5% CO2. For cAMP and receptor expression assays, HEK293T cells were seeded into 6-well cell culture plates at a density of 7 × 10^5 cells per well. After overnight incubation, cells were transfected with GIPR, GLP-1R or GCGR construct using Lipofectamine 2000 or Lipofectamine 3000 transfection reagent (Invitrogen). For whole-cell binding assay, CHO-K1 cells were seeded into 96-well fibronectin-treated cell culture plates at a density of 3 × 10^4 cells per well. After overnight incubation, cells were transfected with GIPR, GLP-1R or GCGR construct using Lipofectamine 2000 transfection reagent (Invitrogen). Following 24 h culturing, the transfected cells were ready for use.
(§2) For GLP-1R and GCGR, CHO-K1 cells (30,000 cells/well) were seeded into Isoplate-96 plates and incubated for 24 h at 37 °C in 5% CO2. The WT or mutant constructs were transiently transfected using Lipofectamine 2000 transfection reagent as previous described. They were then washed twice using F-12 with 0.1% BSA or 0.1% casein, 33 mM HEPES, and incubated for 2 h at 37 °C. […] Cells were washed three times with ice-cold PBS and lysed in PBS with 1% Triton X-100, 20 mM Tris-HCl. After addition of scintillation cocktail (PerkinElmer), radioactivity (CPM) was counted on a MicroBeta^2 microplate counter (PerkinElmer). Data were normalized to the WT response and analyzed using three-parameter logistic equation.

[3] = molecular target: GLP-1R (Homo sapiens, UniProt P43220, D198A/K202A/Y145A); assay: as above; design: Flag; expressed in transfected cells; conditions: GLP-1R Y145A/D198A/K202A, CHO-K1
Sequence of GLP-1R (Homo sapiens, UniProt P43220, D198A/K202A/Y145A) (P43220 24-463 Y145A/D198A/K202A): as the sequence (P43220 24-463 R134A) above, with A111R, Y122A, D175A, K179A counted along it
Procedure: as §1, §2

[4] = molecular target: GLP-1R (Homo sapiens, UniProt P43220, D198A); assay: as above; design: Flag; expressed in transfected cells; conditions: GLP-1R D198A, CHO-K1
Sequence of GLP-1R (Homo sapiens, UniProt P43220, D198A) (P43220 24-463 D198A): as the sequence (P43220 24-463 R134A) above, with A111R, D175A counted along it
Procedure: as §1, §2

[5] = molecular target: GLP-1R (Homo sapiens, UniProt P43220, W39A); assay: as above; design: Flag; expressed in transfected cells; conditions: GLP-1R W39A; CHO-K1
Sequence of GLP-1R (Homo sapiens, UniProt P43220, W39A) (P43220 24-463 W39A): as the sequence (P43220 24-463 R134A) above, with W16A, A111R counted along it
Procedure: as §1, §2

[6] = molecular target: GLP-1R (Homo sapiens, UniProt P43220, Y205A); assay: as above; design: Flag; expressed in transfected cells; conditions: GLP-1R Y205A, CHO-K1
Sequence of GLP-1R (Homo sapiens, UniProt P43220, Y205A) (P43220 24-463 Y205A): as the sequence (P43220 24-463 R134A) above, with A111R, Y182A counted along it
Procedure: as §1, §2

[7] = molecular target: GLP-1R (Homo sapiens, UniProt P43220, W91A); assay: as above; design: Flag; expressed in transfected cells; conditions: GLP-1R W91A, CHO-K1
Sequence of GLP-1R (Homo sapiens, UniProt P43220, W91A) (P43220 24-463 W91A): as the sequence (P43220 24-463 R134A) above, with W68A, A111R counted along it
Procedure: as §1, §2

[8] = molecular target: GLP-1R (Homo sapiens, UniProt P43220, Q210A); assay: as above; design: Flag; expressed in transfected cells; conditions: GLP-1R Q210A, CHO-K1
Sequence of GLP-1R (Homo sapiens, UniProt P43220, Q210A) (P43220 24-463 Q210A): as the sequence (P43220 24-463 R134A) above, with A111R, Q187A counted along it
Procedure: as §1, §2

[9] = molecular target: GLP-1R (Homo sapiens, UniProt P43220, K202A); assay: as above; design: Flag; expressed in transfected cells; conditions: GLP-1R K202A, CHO-K1
Sequence of GLP-1R (Homo sapiens, UniProt P43220, K202A) (P43220 24-463 K202A): as the sequence (P43220 24-463 R134A) above, with A111R, K179A counted along it
Procedure: as §1, §2

[10] = read-out: binding pIC50 (converted)

With CCCCCCCCCCCCCCCC(=O)N[C@@H](CCC(=O)NCCCC[C@H](NC(=O)[C@H](CC(=O)O)NC(=O)[C@H](CO)NC(=O)[C@@H](NC(=O)[C@H](Cc1ccccc1)NC(=O)[C@@H](NC(=O)CNC(=O)[C@H](CCC(N)=O)NC(=O)C(C)(C)NC(=O)[C@@H](N)Cc1c[nH]cn1)[C@@H](C)O)[C@@H](C)O)C(=O)N[C@@H](CO)C(=O)N[C@@H](CCCCN)C(=O)N[C@@H](Cc1ccc(O)cc1)C(=O)N[C@@H](CC(C)C)C(=O)N[C@@H](CC(=O)O)C(=O)N[C@@H](CCC(=O)O)C(=O)N[C@@H](CCCNC(=N)N)C(=O)N[C@@H](C)C(=O)N[C@@H](C)C(=O)N[C@@H](CCC(N)=O)C(=O)N[C@@H](CC(=O)O)C(=O)N[C@@H](Cc1ccccc1)C(=O)N[C@H](C(=O)N[C@@H](CCC(N)=O)C(=O)N[C@@H](Cc1c[nH]c2ccccc12)C(=O)N[C@@H](CC(C)C)C(=O)N[C@@H](CC(C)C)C(=O)N[C@@H](CC(=O)O)C(=O)NCC(=O)NCC(=O)N1CCC[C@H]1C(=O)N[C@@H](CO)C(=O)N[C@@H](CO)C(=O)NCC(=O)N[C@@H](C)C(=O)N1CCC[C@H]1C(=O)N1CCC[C@H]1C(=O)N1CCC[C@H]1C(=O)N[C@@H](CO)C(N)=O)C(C)C)C(=O)O [Peptide 20] the Emax [1] was 98 ± 4.59%, the “binding Span” value [2] was 73.44 ± 3.42 % WT and the IC50 [2, 10] was 3.02 nM. For the same compound, the “binding Span” value [3] was 10.85 ± 36.78 % WT, the IC50 [3, 10] was 1780 nM and the “binding Span” value [4] was 1.88 ± 1.66 % WT. For the same compound, the IC50 [4, 10] was 52.5 nM, the “binding Span” value [5] was “N.B” and the “binding pIC50” value [5] was “N.B”. For the same compound, the “binding Span” value [6] was 6.01 ± 3.17 % WT, the IC50 [6, 10] was 50.1 nM and the “binding Span” value [7] was 6.51 ± 2.59 % WT. For the same compound, the IC50 [7, 10] was 2.04 nM, the “binding Span” value [8] was 100.10 ± 5.13 % WT and the IC50 [8, 10] was 4.07 nM. The “binding Span” value [9] was 15.32 ± 1.82 % WT and the IC50 [9, 10] was 3.47 nM.
